Experimental data taken from patent US20100015126A1, “Methods of Binding of Cross-Beta Structures By Chaperones” (priority 2006, published 2010).

What was measured:
[1] = test system: human monocyte-derived dendritic cells; assay: FACS: binding of misfolded proteins and BiP to human monocyte-derived dendritic cells; assay type: cell-based
From the text: In vitro generation of peripheral blood human monocyte-derived dendritic cells, and analyses for binding of misfolded proteins and BiP
Human DCs are generated from non-proliferating precursors selected from peripheral blood mononuclear cells (PBMCs), essentially by published methods (Sallustro and Lanzavecchia [1994], J. Exp. Med. 179 1109-1118). Relative abundant presence of CD1a, CD32, CD36, CD40, CD54, CD86, HLA-DR and CD206 and relative low content of CD14 positive, CD16 positive, CD64 positive, CD80 positive, CD83 positive and CD163 positive cells serve as a quality measure for the immature DCs. After obtaining the immature DCs upon stimulation with GM-CSF and IL-4, direct binding of misfolded proteins and BiP to the DCs is assessed by incubating 200.000 cells (2*10^6 cells/ml) for 30 minutes at 4° C. under metabolic arrested state, with 1) PBS, 2) 58 μg/ml BiP (830 nM), 4) 250 μg/ml BSA-AGE (3.6 μM), 5) BSA-AGE+BiP, 6) 250 μg/ml oxLDL, 7) oxLDL+BiP, 8) mixture of BiP-binding peptides 6BB8-11, 13 (see Table 5), 125 μg/ml+BiP, and 8) 62.5 μg/ml Aβ16-22, 62.5 μg/ml Aβ25-35+BiP. After the incubation and careful washing of the cells, binding of BiP, BSA-AGE and oxLDL is assessed with FACS, using primary antibodies monoclonal anti-FLAG antibody, monoclonal anti-glycated human fibronectin antibody 4B5 and rabbit serum with anti-human apoliprotein B-100 antibody (Dade Behring, Newark, Del., USA), and the appropriate FITC- or PE-labeled secondary antibody. Mean fluorescence intensity (MFI) ratio's are determined by measuring background fluorescence.

[2] = molecular target: T1, Escherichia coli HSP70 family member DnaK (Escherichia coli, UniProt P0A6Y8); assay: Competition ELISA: DnaK binding under influence of ThT and Congo red; conditions: 20 μg/ml DnaK; 1 mM dye
T1 construct: purchased Stressgen (Ann Arbor, Mich., USA) SPP-630
T1 sequence (P0A6Y8 whole entry): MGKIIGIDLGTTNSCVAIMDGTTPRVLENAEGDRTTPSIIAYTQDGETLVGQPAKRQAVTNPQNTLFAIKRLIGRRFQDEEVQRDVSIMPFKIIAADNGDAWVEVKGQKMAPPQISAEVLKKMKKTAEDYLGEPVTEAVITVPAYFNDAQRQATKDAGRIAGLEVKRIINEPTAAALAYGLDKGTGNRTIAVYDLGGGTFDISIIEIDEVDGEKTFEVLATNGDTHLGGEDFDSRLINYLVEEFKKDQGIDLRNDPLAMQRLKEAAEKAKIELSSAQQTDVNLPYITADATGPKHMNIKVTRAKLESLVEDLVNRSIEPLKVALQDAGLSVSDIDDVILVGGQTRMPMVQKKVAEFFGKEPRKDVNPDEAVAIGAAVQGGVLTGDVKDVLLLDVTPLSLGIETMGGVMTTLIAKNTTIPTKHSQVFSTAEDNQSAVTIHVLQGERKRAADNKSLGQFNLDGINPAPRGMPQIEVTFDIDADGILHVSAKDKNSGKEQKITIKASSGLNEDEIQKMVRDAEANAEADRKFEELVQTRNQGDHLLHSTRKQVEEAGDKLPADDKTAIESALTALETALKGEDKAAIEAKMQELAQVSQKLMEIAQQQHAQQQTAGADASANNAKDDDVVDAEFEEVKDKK
Description: Binding of chaperones to immobilized (misfolded) protein ligands was determined using an enzyme linked immuno sorbent assay (ELISA) approach. For this purpose 50 μl/well of potential ligands at indicated concentrations or coat buffer only for control and background measurement purposes, were coated overnight at 4° C. or coated for 1 h at room temperature, with motion, in 50 mM NaHCO3 pH 9.6 (coat buffer). In general, ligands were coated at 5 μg/ml, unless stated otherwise. For example, BiP binding peptides 6BB# and oxLDL were coated at 50 μg/ml. Native haemoglobin (Sigma-Aldrich, H7379), albumin, IgIV Gammagard and ovalbumin controls were prepared from lyophilized stocks. The controls were prepared by dissolving lyophilized proteins at 1 mg/ml in PBS upon resuspending by pipetting, followed by a 30 minutes period at the roller device, at room temperature. The protein solutions were centrifuged for 10 minutes at 16,000*g and diluted in coat buffer. After coating the plates were washed at least three times with 50 mM Tris-HCl pH 7.3, 150 mM NaCl, 0.1% v/v Tween20, and blocked with Blocking reagent (Roche Diagnostics, Almere, The Netherlands; 11112589001), for 1 h at room temperature, with motion. Plates were washed three times and incubated in triplicate with indicated chaperone dilution series, at 50 μl/well, for 1 h at room temperature, with constant motion. For HSP90, 5 mM DTT is incorporated in the binding buffer (PBS/0.1% Tween20) to avoid unwanted disulfide bond formation of the HSP90. Plates were washed three times and incubated with anti-FLAG antibody (mouse antibody, M2, peroxidase conjugate; Sigma, A-8592) for BiP-FLAG-His, anti-His-tag antibody (Mouse Monoclonal Antibody, Cat. No. 70796, Novagen [0.2 mg/ml]) for HSP60, a 1:1 mix of 500-fold diluted anti-HSP90beta antibodies (Stressgen, SPA-643 [mouse monoclonal IgM], SPA-646 [rabbit polyclonal]) for HSP90 and an anti-DnaK antibody (Stressgen, 023SPA-880D [mouse monoclonal antibody]) for DnaK. After four wash cycles, secondary antibodies were added to the wells when required, 50 μl/well, for 45′ at room temperature, with motion. RAMPO and SWARPO were used at 3000 times dilution. […] In a second experiment with more immobilized misfolded proteins and controls, the detection of bound HSP90 with the mix of two anti-HSP90 antibodies was achieved by mixing 1:1500 SWARPO with 1:3000 RAMPO. After 5 washes with wash buffer followed by two washes with PBS, binding of antibodies was assessed. […] Plates were read at 450 nm. Triplicates were averaged and standard deviations calculated. […] Subsequently, sub-optimal concentrations of chaperones for binding to misfolded protein ligands are determined, and these concentrations are used for inhibition studies. […]

immobilized BiP = molecular target: T2, immobilized BiP (Homo sapiens, UniProt P11021); assay: Depletion of solutions from misfolded proteins using immobilized BiP (ELISA); assay type: binding; conditions: BiP coated at 5 μg/ml
T2 construct: The human BiP gene except the signal peptide encoding region was obtained from Geneart (Germany); linker […]; made in house; host or cells: HEK 293E cells, transient transfection, PABC674 vector; secreted into the medium
T2 sequence (P11021 19-654): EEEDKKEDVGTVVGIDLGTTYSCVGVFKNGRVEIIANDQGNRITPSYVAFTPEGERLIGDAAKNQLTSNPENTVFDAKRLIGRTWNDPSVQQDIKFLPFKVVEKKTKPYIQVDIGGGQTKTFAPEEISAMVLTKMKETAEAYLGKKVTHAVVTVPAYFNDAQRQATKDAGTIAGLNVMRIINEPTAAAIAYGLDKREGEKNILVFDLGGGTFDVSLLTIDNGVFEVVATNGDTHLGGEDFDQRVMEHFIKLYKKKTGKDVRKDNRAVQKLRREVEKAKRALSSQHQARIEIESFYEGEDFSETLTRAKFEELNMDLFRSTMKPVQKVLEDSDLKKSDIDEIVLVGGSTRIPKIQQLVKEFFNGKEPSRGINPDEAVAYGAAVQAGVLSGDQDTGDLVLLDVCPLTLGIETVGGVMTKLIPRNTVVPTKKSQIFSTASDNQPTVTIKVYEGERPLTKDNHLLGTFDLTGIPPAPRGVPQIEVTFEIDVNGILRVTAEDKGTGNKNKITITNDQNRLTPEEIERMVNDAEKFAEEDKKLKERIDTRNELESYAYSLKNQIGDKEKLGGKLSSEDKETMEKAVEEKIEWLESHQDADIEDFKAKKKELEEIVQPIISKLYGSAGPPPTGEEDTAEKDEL
Description: We analysed whether recombinant human BiP with a C-terminal FLAG-tag and His-tag can be applied for depleting solutions from misfolded proteins comprising crossbeta structure.
BiP was coated at a concentration of 5 μg/ml at Greiner Microlon high-binding plates, for 1 h at room temperature with motion. As a negative control buffer was coated. ELISAs were performed essentially as described before. […] All binding buffers were PBS/0.1% (v/v) Tween20. Binding of dOVA was assayed using monoclonal anti-chicken egg albumin antibody (Sigma, A6075, 1:10.000 dilution) and RAMPO (Dako Cytomation, P0260, 1:3.000). […] Background signals obtained with buffer coated wells that were subsequently overlayed with protein solutions (see below), were subtracted from signals obtained with wells with coated BiP.

BSA-AGE
Binding to DCs (MFI ratio), Misfolded protein ([1]; FACS, human dendritic cells, detection of the misfolded protein, signal divided by background signal): 4.0
Binding of misfolded protein to DCs ([1]; absence of BiP, 250 μg/ml): bind
Amount of BiP bound to DCs when added together with misfolded protein ([1]; compared to BiP added to DCs alone): about doubled
Amount of misfolded protein bound to DCs when added together with BiP ([1]; compared to misfolded protein without BiP): only slightly increased

Nc1c(/N=N/c2ccc(-c3ccc(/N=N/c4cc(S(=O)(=O)O)c5ccccc5c4N)cc3)cc2)cc(S(=O)(=O)O)c2ccccc12 [Congo red]
Binding of DnaK to immobilized HbAGE under influence of compound [2]: inhibit
Binding of DnaK to immobilized dIgIV-86 under influence of compound [2]: inhibit

Cc1ccc2c(c1)sc(-c1ccc(N(C)C)cc1)[n+]2C.[Cl-] [ThT, Thioflavin T]
Binding of DnaK to immobilized HbAGE under influence of compound [2]: inhibit
Binding of DnaK to immobilized dIgIV-86 under influence of compound [2]: inhibit

HbAGE: human haemoglobin glycated with glucose-6-phosphate for 75 weeks
Concentration at which binding to immobilized BiP is already maximum (immobilized BiP): 1 µg/mL
Extraction from solution by immobilized BiP (immobilized BiP; 1, 10, 100 μg/ml misfolded protein): extracted specifically by BiP to an even higher extent
